Assay results as given in paper PMC11494886, “Discovery and design of molecular glue enhancers of CDK12–DDB1 interactions for targeted degradation of cyclin K” (RSC Chemical Biology, 2024).
Read-outs that look alike come from different tables or passages of the source.

Key:
CDK12/cyclin K + DDB1 = target: T1, CDK12/cyclin K + DDB1 (Homo sapiens, UniProt Q16531+Q9NYV4, DEL396-705); experiment: Microscale thermophoresis, ternary complex formation; assay type: binding; settings: MST
T1 construct: The kinase domain of human CDK12 (Uniprot: Q9NYV4; a.a; 715–1050); GST (N, cleaved yes); made in house; host or cells: Spodoptera frugiperda SF9 insect cells (Bac-to-Bac); CDK12/cyclin K co-infected with S. cerevisiae CAK1
T1 sequence (Q16531 with tags, fused parts or gaps DEL396-705): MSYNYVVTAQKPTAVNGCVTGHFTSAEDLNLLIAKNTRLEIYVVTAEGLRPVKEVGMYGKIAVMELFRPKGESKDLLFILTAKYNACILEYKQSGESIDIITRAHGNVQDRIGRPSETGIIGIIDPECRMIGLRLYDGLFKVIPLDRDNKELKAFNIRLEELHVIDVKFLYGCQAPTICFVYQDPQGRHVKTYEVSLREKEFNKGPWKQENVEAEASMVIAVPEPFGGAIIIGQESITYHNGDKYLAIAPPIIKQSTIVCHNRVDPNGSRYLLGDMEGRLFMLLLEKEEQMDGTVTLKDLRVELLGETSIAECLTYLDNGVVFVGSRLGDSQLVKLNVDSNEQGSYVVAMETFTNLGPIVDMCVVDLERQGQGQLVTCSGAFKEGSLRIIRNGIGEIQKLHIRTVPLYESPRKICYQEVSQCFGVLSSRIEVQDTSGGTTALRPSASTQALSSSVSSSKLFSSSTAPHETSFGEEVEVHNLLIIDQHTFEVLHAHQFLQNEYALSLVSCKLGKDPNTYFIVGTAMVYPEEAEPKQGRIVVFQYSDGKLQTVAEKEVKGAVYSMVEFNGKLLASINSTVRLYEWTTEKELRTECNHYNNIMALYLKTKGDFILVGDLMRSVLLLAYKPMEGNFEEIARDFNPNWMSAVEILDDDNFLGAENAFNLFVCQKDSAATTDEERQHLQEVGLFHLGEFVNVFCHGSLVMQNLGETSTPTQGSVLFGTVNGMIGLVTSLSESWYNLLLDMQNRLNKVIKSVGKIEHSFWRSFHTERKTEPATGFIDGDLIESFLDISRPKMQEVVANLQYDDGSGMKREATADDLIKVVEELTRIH
T1 sequence (Q9NYV4 715-1050, stated change not applied): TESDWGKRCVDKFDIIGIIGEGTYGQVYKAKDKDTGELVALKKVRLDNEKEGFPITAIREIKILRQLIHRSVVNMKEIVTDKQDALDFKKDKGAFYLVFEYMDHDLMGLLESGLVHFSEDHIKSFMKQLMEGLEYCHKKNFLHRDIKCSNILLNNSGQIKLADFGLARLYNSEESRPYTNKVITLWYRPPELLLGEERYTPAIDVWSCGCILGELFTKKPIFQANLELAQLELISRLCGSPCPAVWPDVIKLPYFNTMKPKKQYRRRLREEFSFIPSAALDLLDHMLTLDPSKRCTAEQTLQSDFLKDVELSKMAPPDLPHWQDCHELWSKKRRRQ
T1 sequence (O75909 11-267 partner limits assumed): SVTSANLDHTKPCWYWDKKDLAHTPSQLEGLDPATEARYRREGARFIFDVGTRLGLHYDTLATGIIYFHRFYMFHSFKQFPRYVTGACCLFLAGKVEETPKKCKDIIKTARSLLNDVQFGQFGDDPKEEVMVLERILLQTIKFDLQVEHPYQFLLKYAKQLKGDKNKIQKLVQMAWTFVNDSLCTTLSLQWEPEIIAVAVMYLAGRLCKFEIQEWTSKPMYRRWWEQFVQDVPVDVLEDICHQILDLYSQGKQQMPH
Method: Finally, the capacity of small molecules to induce a ternary complex between CDK12/cyclin K and DDB1 in vitro was assessed by microscale thermophoresis (MST). Labeled DDB1ΔBPB was combined with purified CDK12/cyclin K, and fluorescence intensity was monitored with increasing compound concentrations.
Cell pellets were harvested 48 hours post infection via centrifugation and lysed in buffer A (50 mM Tris–HCl (pH 8.0), 200 mM NaCl, 10 mM imidazole, 0.5 mM tris(2-carboxyethyl) phosphine (TCEP)) supplemented with EDTA-free Pierce™ protease inhibitor tablet (Thermo Fisher Scientific). […] The concentrated protein at 2 mg mL^−1 was flash-frozen in liquid nitrogen and stored at −80 °C.
Full-length S. cerevisiae CAK1 (Uniprot: P43568) with an N-terminal His6 tag was subcloned into pFastBac 1 vector. […] The eluted CDK12/cyclin K complex was concentrated to 2 mg mL^−1, flash-frozen in liquid nitrogen and stored at −80 °C.
A protocol to assess ternary binding of molecular glues with CDK12/cycK and DDB1 by MST was established using published procedures for PROTAC interaction with bromodomains and E3 ubiquitin ligases.[38] His8-DDB1-ΔBPB was labeled with the MO-L018 Monolith™ His-tag Labeling Kit RED-tris-NTA 2nd Generation (NanoTemper Technologies) following the instruction manual. 100 nM dye was mixed with 200 nM DDB1 in 50 mM HEPES pH 7.5, 150 mM NaCl, 5% glycerol, 0.05% Tween, and incubated at room temperature for 30 min. […] MST traces were recorded using standard parameters: 5 s MST power off, 30 s MST power on and 5 s MST power off. Measurements were taken at −1 to 0 s (cold region) and 9–10 s (hot region). Data were analyzed using a fitting function derived from the law of mass action:1 [drawing 6] where f(c) is the fluorescence signal (Fnorm) at a given ligand concentration (c), B is Fnorm of fully liganded DDB1 at high ligand concentrations, U is Fnorm of DDB1 alone at low ligand concentrations, Kd is the dissociation constant or binding affinity, cT is the final concentration of DDB1 in the assay (Fig. 3G). For normalization, the data were first transformed using eqn (2) where y is the fraction bound, followed by fitting to eqn (3) (Fig. 5B–E).2 [drawing 7] 3 [drawing 8]

cyclin K [1] = experiment: Immunofluorescence of nuclear cyclin K in MDA-MB-231 cells; assay type: cell-based, human
Method: Cells were fixed with 4% PFA in PBS at room temperature, permeabilized with 0.1% Triton X-100 in PBS, and blocked with 3% BSA in PBS at room temperature. Cells were incubated with primary antibodies overnight at 4 °C, followed by incubation with Alexa-Fluor conjugated secondary antibodies for 1 hour at room temperature. Cell nuclei were stained using DAPI. Images were acquired on a confocal microscope (Leica). ImageJ and QuPath were used for image analysis.
Figure S8. Immunofluorescence staining for cyclin K degradation. MDA-MB-231 cells were
treated for 2 h with either DMSO or the indicated compounds (0.5 µM) . Cells were fixed and
Nuclei were stained with DAPI (blue). […]

MDA-MB-231 cells = experiment: CellTiter-Glo viability assay, WT MDA-MB-231; assay type: cell-based; settings: Homo sapiens; wild type MDA-MB-231; read-out: EC50 (WT) cell viability
From the text: MDA-MB-231 (human triple-negative breast cancer cells) and HEK293T (human embryonic kidney cells) were purchased from the American type culture collection (ATCC) and maintained in Dulbecco's modified Eagle's medium (DMEM) (Gibco) supplemented with 10% (v/v) heat-inactivated fetal bovine serum (FBS) (Gibco) and penicillin/streptomycin (100 U mL^−1 each). HiBiT-CCNK KI A549 cells, purchased from Promega, were maintained in F12 medium supplemented with 10% (v/v) heat-inactivated fetal bovine serum (FBS) (Gibco) and penicillin/streptomycin (100 U mL^−1 each). DDB1-knockdown MDA-MB-231 and DDB1-knockdown HEK293T cell lines were maintained in the same media formulation as their corresponding wild-type cell lines. All cell lines were cultured at 37 °C in an incubator with CO2 levels maintained at 5%.
(§1) Cell viability was measured by Cell Titer Glo assay kit (Promega, USA). EC50 was determined from the nonlinear regression and a four-parameter algorithm on the GraphPad Prism software.

cyclin K [2] = experiment: Immunoblot of cyclin K levels in MDA-MB-231 cells; assay type: cell-based, human; settings: SR-4835 500 nM, SR-4784 1-2 μM 2 hours, SR-4784-PAP 2 μM 2 hours
Method: THZ531 was used as a negative control as it is known to make a covalent bond with Cys1039 in a C-terminal extension of the kinase domain, thereby preventing this helix-loop-helix (HLH)-like fold from binding in a cleft between the DDB1 BPA and BPC domains (Fig. 1B, right panels). […] An immunofluorescence-based assay developed for visualizing loss of nuclear cyclin K also confirmed the above observations (Fig. 1H and Fig. S1, ESI ^†).
Total cell lysates were prepared using RIPA lysis buffer (Millipore Sigma) supplemented with protease and phosphatase inhibitors (Roche). Protein concentrations were estimated using the BCA protein assay kit (Pierce, Thermo Fisher Scientific). Equal amounts of proteins were separated using NuPAGE 4–12% Bis-Tris gels (Thermo Fisher Scientific). For CLICK chemistry pulldown experiments, proteins in the eluates were resolved using 3–8% Tris–acetate gels (Thermo Fisher Scientific). Proteins were transferred to nitrocellulose membranes using NuPAGE transfer buffer (Thermo Fisher Scientific). Membranes were blocked in LI-COR blocking buffer for 1 hour at room temperature and then probed with primary antibodies diluted in the same blocking buffer overnight at 4 °C. To detect the primary antibodies, membranes were incubated with IR-680 or IR-800 conjugated secondary antibodies (LI-COR) diluted in LI-COR blocking buffer at room temperature for 1 hour. Washes with 0.01% Tween-phosphate buffer were performed after primary and secondary antibody incubation steps. Signals from the membrane were recorded by scanning on a LI-COR Odyssey imager. Bands were quantified using Image Studio Lite (LI-COR Biosciences) or the ImageJ program.
To visualize the degradation of cyclin K, total cell lysates were subjected to SDS-PAGE and western blotting.

[3] = tested on: MDA-MB-231DDB1-shRNA cells; experiment: CellTiter-Glo viability assay, MDA-MB-231 DDB1-shRNA; assay type: cell-based, human; settings: Homo sapiens; MDA-MB-231 DDB1-shRNA; read-out: EC50 (DDB1 shRNA) cell viability
From the text: For stable genetic knock-down of DDB1 in cells, predesigned and validated TRC2-pLKO-puro shRNA plasmids for DDB1 (TRCN0000082855 and TRCN0000082856), and a non-targeting shRNA plasmid (SHC001) were obtained from Millipore Sigma. All plasmids were purified using the Qiagen Maxiprep kit (Qiagen). FuGENE HD 6 transfection reagent (Promega) was used for transfection of plasmids and lentiviral gene/shRNA constructs. Mission lentiviral packaging mix (Millipore Sigma) was used to package lentiviral plasmids into lentiviral particles in HEK293T cells, as per manufacturer's protocols. The resultant virus was concentrated using Vivaspin 20 centrifugal concentrators (Sartorius). MDA-MB-231 and HEK293T cells were transduced with lentivirus. Stable knocked down DDB1 (shDDB1-231 and shDDB1-HEK293T) cells were generated after selection with the antibiotic puromycin, and genetic knockdown was confirmed by western blotting.
as §1

[4] = labeled DDB1 + CDK12/cyclin K, run #1, read-out: Kd ternary complex formation, replicate #1
[5] = labeled DDB1 + CDK12/cyclin K, run #2, read-out: Kd ternary complex formation, replicate #2
[6] = labeled DDB1 + CDK12/cyclin K, run #3, read-out: Kd ternary complex formation, replicate #3
[7] = labeled DDB1ΔBPB 10 nM + CDK12/cyclin K 1000 nM, mean of replicates, read-out: Kd ternary complex formation (average)

SMILES	Kd (CDK12/cyclin K + DDB1; [4]) [nM]	Kd (CDK12/cyclin K + DDB1; [5]) [nM]	Kd (CDK12/cyclin K + DDB1; [6]) [nM]	Kd (CDK12/cyclin K + DDB1; [7]) [nM]	cyclin K nuclear intensity compared to control (cyclin K [1]; MDA-MB-231 cells, 0.5 µM, 2 h)	EC50 (MDA-MB-231 cells) [nM]	cyclin K degradation (immunoblot) (cyclin K [2])	EC50 [3] [nM]	ability to induce ternary complex (CDK12/cyclin K + DDB1; labeled DDB1ΔBPB + CDK12/cyclin K)	cyclin K nuclear intensity compared to control (cyclin K [1])
Cn1cc(-c2cnn3c(NCc4nc5cc(Cl)c(Cl)cc5[nH]4)nc(N4CCOCC4)nc23)cn1 [MR-1014, N-((5,6-Dichloro-1H-benzo[d]imidazol-2-yl)methyl)-8-(1-methyl-1H-pyrazol-4-yl)-2-morpholinopyrazolo[1,5-a][1,3,5]triazin-4-amine]	409 ± 117	347 ± 98.3	528 ± 295	428	reduced					
Clc1cccc2nc(CNc3cc(N4CCNCC4)nn4c(-c5ccsc5)cnc34)[nH]c12 [MR-1110, N-((7-Chloro-1H-benzo[d]imidazol-2-yl)methyl)-6-(piperazin-1-yl)-3-(thiophen-3-yl)imidazo[1,2-b]pyridazin-8-amine]	24.3 ± 9	31.3 ± 17.4	37.6 ± 23.3	31.1 ± 6.7	reduced					
CN1CC=C(c2cn3c(-c4cnn(C(F)F)c4)cnc3c(NCc3nc4cc(Cl)c(Cl)cc4[nH]3)n2)CC1 [MR-1187, N-((5,6-Dichloro-1H-benzo[d]imidazol-2-yl)methyl)-3-(1-(difluoromethyl)-1H-pyrazol-4-yl)-6-(1-methyl-1,2,3,6-tetrahydropyridin-4-yl)imidazo[1,2-a]pyrazin-8-amine]	137 ± 33.3	122 ± 54.6	152 ± 63.7	137 ± 15	reduced					
Cn1cc(-n2cnc3c(NCc4nc5cc(Cl)c(Cl)cc5[nH]4)nc(N4CCNCC4)nc32)cn1 [SR-4784, N-((5,6-dichloro-1H-benzo[d]imidazol-2-yl)methyl)-9-(1-methyl-1H-pyrazol-4-yl)-2-(piperazin-1-yl)-9H-purin-6-amine]						263	induced cyclin K degradation	796		
C#CCCC1(CCC(=O)N2CCN(c3nc(NCc4nc5cc(Cl)c(Cl)cc5[nH]4)c4ncn(-c5cnn(C)c5)c4n3)CC2)N=N1 [SR-4784-PAP, 3-(3-(But-3-yn-1-yl)-3H-diazirin-3-yl)-1-(4-(6-(((5,6-dichloro-1H-benzo[d]imidazol-2-yl)methyl)amino)-9-(1-methyl-1H-pyrazol-4-yl)-9H-purin-2-yl)piperazin-1-yl)propan-1-one]							degraded cyclin K in a proteasome-dependent manner			
CCc1cnn2c(NCc3ccc[n+]([O-])c3)cc(N3CCCC[C@H]3CCO)nc12 [dinaciclib, reference compound]									lacked the ability to induce a ternary complex	not affected
